Data reported in patent US8568714B2, “Lys K endolysin is synergistic with lysostaphin against MRSA” (priority 2008, dated 2013).
Several values for one entry are separate records, joined by “and”; a condition that tells them apart may be missing. Equal entries are not always repeated. Where two headings read alike, the source gives them in different places.

Tests used:
S. aureus strain 305 = assay: MIC determination on S. aureus strain 305; assay type: cell-based; settings: Staphylococcus aureus
Protocol: (§1) A classical microdilution broth method for determination of the Minimal Inhibitory Concentration (MIC) was used (Jones et al. 1985. In Manual of Clinical Microbiology, Balows et al. (Eds.), American Society for Microbiology, Washington D.C., pages 972-977). Briefly, logarithmic-phase bacteria were cultivated in tryptic soy broth and adjusted in broth to a concentration of 1×10^6 CFU/ml. Sterile microtiter plates containing 100 μl of either LysK or lysostaphin diluted in TSB are inoculated with 100 μl of the bacterial suspension to yield 5×10^5 CFU/ml. The plate is incubated at 37° C. for 20 h, at which point the plate is analyzed for clear vs. turbid wells. Each MIC assay represents at least two identical determinations per experiment.

MRSA USA300 = assay: Modified checkerboard synergy assay; assay type: cell-based, Staphylococcus aureus
Protocol: Modified checkerboard assay experiments were performed according to Graham and Coote, supra. S. aureus 305 or MRSA USA300 cells at 1×10^6 CFU/ml were prepared as for the MIC assay, and added to wells containing varying concentrations of both LysK and lysostaphin diluted in TSB. The amount of buffer in each well was adjusted to maintain the same final concentration of storage buffer (5%) and corrected with 2×TSB to maintain 1×TSB in all wells. The plate was incubated at 37° C. for 20 h, and then analyzed for clear vs. turbid wells. The Fractional Inhibitory Concentration (FIC) is calculated as the MIC of the antimicrobial in combination divided by the MIC of the antimicrobial acting alone.
To determine if these proteins could act synergistically, both LysK and lysostaphin were tested in a checkerboard assay with various concentrations of each to determine the minimal concentration of each in combination, that could inhibit growth of the MRSA USA300 (FIG. 6). The last row and column on the 96 well microtiter plate replicate the MIC determinations for lysostaphin and LysK, respectively, with nearly identical results obtained for the MIC in this assay, as in FIG. 5. […] It is apparent that the inhibition of growth when the two were added simultaneously was greater than the expected additive effect of each alone. The ΣFIC was 0.45+/−0.07 (three independent experiments), indicating strong synergistic activity (Hall et al., supra), including one assay with S. aureus 305 (data not shown).

MRSA strain USA300 = assay: Microdilution broth MIC determination; assay type: cell-based, Staphylococcus aureus; settings: MRSA USA300, TSB, 37° C., 20 h
Protocol: as §1
MIC determinations for MRSA strain USA300 by lysostaphin and C-His-LysK, were performed in a 96 well microtiter plate. (FIG. 5).

Row | Compound | MIC (S. aureus strain 305; read-out: MIC) [µg/mL] | MIC (S. aureus strain 305; translated from μg/ml, read-out: MIC on a molar basis) [µM] | concentration of each in combination that inhibits growth (MRSA USA300; cleared well: lysostaphin 0.018 with LysK 11.43) [µg/mL] | concentration of each in combination that inhibits growth (MRSA USA300; cleared well: lysostaphin 0.027 with LysK 5.71) [µg/mL] | concentration in combination as % of each agent's MIC (MRSA USA300; second cleared-well condition) | MIC (MRSA strain USA300) [µg/mL] | MIC (MRSA strain USA300; listed as Lysostaphin)
1 | CC1(C)S[C@@H]2[C@H](NC(=O)[C@H](N)c3ccccc3)C(=O)N2[C@H]1C(=O)O [Ampicillin] | ~0.4 | ~1 | – | – | – | – | –
2 | lysostaphin: recombinant non-tagged mature 246 amino acid anti-staphylococcal bacteriocin of S. simulans, Sigma-Aldrich L0761 | – | – | 0.018 | 0.027 | 16% and < 16% | 0.096 | 0.097 µg/mL and 0.096 ± 0.018 µg/mL
